This experiment has as its target T1, Styrene monooxygenase (StyAB), FAD-dependent monooxygenase component (StyA) (Pseudomonas sp, UniProt O50214).
T1 construct: made in house; host or cells: Escherichia coli JM101
T1 sequence (O50214 1-415): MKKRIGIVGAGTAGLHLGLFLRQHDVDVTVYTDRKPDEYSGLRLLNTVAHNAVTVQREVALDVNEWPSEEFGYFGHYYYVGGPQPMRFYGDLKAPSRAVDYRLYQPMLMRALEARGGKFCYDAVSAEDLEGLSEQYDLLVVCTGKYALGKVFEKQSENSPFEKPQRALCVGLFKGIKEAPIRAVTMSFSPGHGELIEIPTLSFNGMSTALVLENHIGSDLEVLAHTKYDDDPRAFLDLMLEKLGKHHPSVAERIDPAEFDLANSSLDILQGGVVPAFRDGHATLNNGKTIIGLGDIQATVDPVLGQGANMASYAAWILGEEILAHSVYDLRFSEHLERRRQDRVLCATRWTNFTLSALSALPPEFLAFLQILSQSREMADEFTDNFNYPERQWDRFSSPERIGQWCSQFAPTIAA
Put plainly: Electroenzymatic epoxidation of styrene derivatives by StyA with direct electrochemical FAD regeneration. The note with it: for ee-value: optical purity of the (S)-epoxide product of the electroenzymatic epoxidation. Format: biochemical. The procedure:
Initial experiments on the electroenzymatic epoxidation were performed with trans-β-methyl styrene as substrate. Electrolyses were performed potentiostatically applying a cathode potential of −550 mV vs. Ag/AgClsat. No product formation was detectable when either StyA or FAD was omitted from the reaction medium. […] Similarly, a broad variety of diversely substituted vinylaromatic compounds could be transformed to the more than 98% optically pure corresponding (S) epoxides (Table 1).
StyA was enriched from recombinant Escherichia coli JM101 as described previously^[35]. The purity of the lyophilized biocatalyst was approximately 70% (as determined by SDS gel-electrophoresis).
Electrolyses were performed in a thermostatted stirred tank reactor. Cylindrical carbon felt served as cathode (working electrode) and the potential was adjusted versus a saturated Ag/AgClsat. reference electrode. The dimensions of the working electrode are given a macroscopic area (corresponding to an average of 27.1±2.1 mg cm^−2). Conditions of either a divided or an undivided cell were chosen. For the divided cell, the Pt-wire counter electrode was placed in a dialysis membrane; otherwise a Pt-foil (Ø1 cm) was used. After supplementing the reactor with the reaction components indicated a cathode potential of −550 mV vs. Ag/AgClsat was applied. In case of divided cell, O2 was supplied by heterogeneous intake of air (intake rates were estimated with a Hewlett Packard soap film flowmeter; under the conditions of an undivided cell, O2 was generated at the counter electrode.
Reaction rates (and enzyme performances calculated thereof were determined based on the product formation as determined by HPLC using protocols previously reported.^[34, 35]

[1] abbreviates: potassium phosphate buffer 50 mM pH 7.5, T = 30° C., c(StyA) = 2.13 μM, c(FAD) = 300 μM, catalase 480 U mL^−1, substrate 2 mM, cathode 14 cm^2, −550 mV vs. Ag/AgClsat.

Marks after values point to notes of the source that are not given here. Some results are limits rather than exact numbers.

On to `C=Cc1ccccc1`, for which the Rate under setting [1] is recorded as 28.1 U g^−1.
`C[C@]1(c2ccccc2)CO1` gave an ee-value of 99.5%.
`C=C(C)c1ccccc1` yielded a Rate under setting [1] of 14.6 U g^−1.
As for `C1=Cc2ccccc2CC1`, the Rate under setting [1] is 58.9 U g^−1.
Consider `C=Cc1cccc(Cl)c1`, for which the Rate (as general conditions but T = 25° C., activity determined after 15 min) was 27.7 [b] U g^−1.
`Clc1cccc([C@H]2CO2)c1` returned an ee-value of 98.1%.
Consider `C[C@@H]1O[C@H]1c1ccccc1` [(1S,2S)-1-phenylpropylene oxide], for which the ee-value is given as above 99.9%. Where the note is “substrate trans-β-methyl styrene, −550 mV vs. Ag/AgClsat, all reaction components present”, the “Optical purity of product” value is recorded as “practically enantiopure”.
On to `C/C=C/c1ccccc1` [trans-β-methyl styrene], for which, under setting [1], the Rate is given as 35.5 U g^−1.
Regarding `c1ccc([C@H]2CO2)cc1`, the ee-value worked out at 98.5%.
Same read-out and setting: the figure for `c1ccc2c(c1)CC[C@H]1O[C@@H]21` is 99.2%.

These data come from patent US20070231871A1, “Process for an Enzymatic Oxygenation by Direct Electrochemical Regeneration of the Fad-Dependent Monooxygenase” (priority 2004, published 2007).
